According to US5162336A, “Tetrahydro-pyrido-indoles as cholecystokinin and gastrin antagonists” (Rhone-Poulenc Rorer Pharmaceuticals Inc., priority 1990, dated 1992):

Target: T1, CCK-A receptor (Rattus norvegicus, UniProt P30551)
T1 construct: from tissue; host or cells: pancreas membranes of Sprague-Dawley rat
T1 sequence (P30551 1-444): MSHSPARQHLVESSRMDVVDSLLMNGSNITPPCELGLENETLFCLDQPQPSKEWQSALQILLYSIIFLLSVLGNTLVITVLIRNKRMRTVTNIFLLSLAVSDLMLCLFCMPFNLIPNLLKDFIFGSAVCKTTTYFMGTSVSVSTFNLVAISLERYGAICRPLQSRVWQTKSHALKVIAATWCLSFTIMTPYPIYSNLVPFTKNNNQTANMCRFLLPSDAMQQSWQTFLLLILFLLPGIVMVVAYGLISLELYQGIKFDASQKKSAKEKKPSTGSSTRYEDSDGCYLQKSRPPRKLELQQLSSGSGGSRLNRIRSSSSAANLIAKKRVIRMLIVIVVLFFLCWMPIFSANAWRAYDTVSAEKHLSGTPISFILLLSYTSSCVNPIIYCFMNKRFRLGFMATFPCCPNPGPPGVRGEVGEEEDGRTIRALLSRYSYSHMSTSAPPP
Assay: CCK-A receptor binding assay (displacement of 3H-L-364,718 from rat pancreas membranes)
Design: species or system Sprague-Dawley rat
Details: 3H-L-364,718 0.2 nM, 37° C., 30 min, read-out: In vitro Binding Data IC50 CCK
Protocol: Washer Buffer (for use with Brandel Cell Harvester):
30 liters of 50 mM Tris, ph 7.7: Dissolve 181.7 g. Tris base in 4 1. deionized water at room temperature. Adjust pH to 7.7 with 6 N HCl and Q.S. to 30 1.
50 mM Tris-Cl, 5 mM MgCl2, 5 mM dithio-thretiol, 0.14 mg/ml bacitracin, and 2 mg/ml bovine serum albumin.
1 liter of 5X stock buffer:
30.28 g. Tris base per 800 ml D.I. water 5.09 g. MgCl2 6 H2 O, pH to 7.7 at room temperature with 6N HCl and Q.S. 1 liter, store at 4° C.
250 ml working buffer kept on ice:
50 ml of 5X stock buffer 0.1928 g. dithiothretiol (5 mM), 35 mg bacitracin (0.14 mg/ml), and 0.5 g. BSA (2mg/ml).
Unlabeled L-364,718(nonpeptide ligand):
Unlabeled L-364,718 (300 nM final concentration) is used to define nonspecific binding. A 3 mM solution is made in absolute ethanol and stored in a scintillation vial at -70° C. Aliquots are diluted 100-fold in the assay.
A Sprague-Dawley rat is sacrificed by asphyxiation with carbon dioxide and the pancreas removed. The tissue is immersed in cold wash buffer and carefully trimmed of fat, connective tissue, blood vessels, blotted and weighed. The tissue is homogenized in a Sorvall SS-34 centrifuge tube in 50 volumes of wash buffer using a Polytron at setting 7 for 15 seconds. The tissue is centrifuged (Sorvall SS-34) at 19,000 rpm for 10 min. The supernatant is poured off and the pellet resuspended in sufficient buffer to obtain a contraction of 40 mg tissue wet weight/ml. Separate aliquots (2,3ml) are placed in each of 8 centrifuge tubes and centrifuged as before. The supernatants are poured off and the pellets stored at -70° C. Stored pellets are sufficient for the assay of 160 tubes and are stable for 1-2 months.
During the assay the stored membranes are resuspended in 40 ml of assay buffer by scraping the pellet off the wall of the centrifuge tube and washing it into a teflon-glass homogenizer. Membranes are resuspended by 5 passes with the teflon pestle and the membranes stored on ice until ready for use.
Preparation of Compounds:
Compounds are prepared in DMSO (dimethyl sulfoxide) or in assay buffer. The majority of structures active as CCK antagonists generally require DMSO for complete solubility. Approximately 2-3 mg of compound is weighed directly into a 13×100 mm test tube and sufficient DMSO added to obtain a working stock solution at a concentration 100 fold greater than the highest concentration being tested in the assay. A total of 10 μl of each concentration of drug is added into a final volume of 1 ml to yield a 100 fold dilution of the, working stock solution. Control binding tubes ("totals and nonspecifics") are also treated with 10 μl DMSO.
^3 H-L-364,718 is obtained from New England Nuclear (Cat. #971) and is used as supplied. The final assay concentration of ^3 H-L-364,718 in assay buffer should be 0.2 nM in a final assay volume of 1 ml. ^3 H-L-364,718 (0.2 pmol) is added into the assay in a volume of 25 μl (8 nM working stock solution). The required dilution (usually>1000 fold) is obtained by dividing the working stock concentration into the concentration of the specific lot.
Samples are prepared in triplicate and a "total" (buffer addition) and "nonspecific" (300 nM unlabeled L-364,718) set of tubes included in each set of 24 tubes. The remaining 6 sets of triplicates are used either for screening or IC50 determinations. The order of addition is drugs-DMSO, buffer, unlabeled L-364,718, ^3 H-L-364,718, and to start the assay, membranes.
While tubes are incubating a shaking water bath at 37° C. for 30 min Brandel deposit/dispense filters are presoaked in wash buffer. Following the end of the incubation, sets of 24 tubes are rapidly washed with assay buffer as follows. Assay buffer is added to the incubation tubes to the height of the uppermost cross support in the standard Brandel test tube rack and the contents immediately aspirated. This process is repeated twice more, the filter removed, marked and the next set of 24 tubes processed. […]

For `CC(C)C[C@H](NC(=O)[C@H]1Cc2c([nH]c3ccccc23)CN1)C(=O)N[C@@H](CC(=O)O)C(N)=O` [Example 1, N-[(3R)-1,2,3,4-tetrahydro-9H-pyrido[3,4-b]indole-3-carboxyl]-L-leucyl-L-aspartic acid amide], the IC50 was over 300 µM.

For `CC(C)C[C@H](NC(=O)[C@@H]1Cc2c([nH]c3ccccc23)CN1)C(=O)N[C@@H](CC(=O)O)C(N)=O` [Example 2, N-[(3S)-1,2,3,4-tetrahydro-9H-pyrido[3,4-b]indole-3-carboxyl]-L-leucyl-L-aspartic acid amide], the IC50 was over 300 µM.

Work on `NC(=O)[C@H](CC(=O)O)NC(=O)[C@H]1Cc2c([nH]c3ccccc23)CN1` [Example 3, N-[(3R)-1,2,3,4-tetrahydro-9H-pyrido[3,4-b]-indole-3-carboxyl]-L-aspartic acid amide] yielded an IC50 of over 300 µM.

Molecule `NC(=O)[C@H](CC(=O)O)NC(=O)[C@@H]1Cc2c([nH]c3ccccc23)CN1` [Example 4, N-[(3S)-1,2,3,4-tetrahydro-9H-pyrido[3,4-b]indole-3-carboxyl]-L-aspartic amide] has an IC50 of over 300 µM.

For `O=C(NCC(c1ccccc1)c1ccccc1)[C@H]1Cc2c([nH]c3ccccc23)CN1` [Example 5, (3R)-3-(2,2'-diphenyl)ethylcarbamoyl-1,2,3,4-tetrahydro-9H-pyrido[3,4-b]indole], the IC50 was 50 to 60 µM.

`O=C(NC(c1ccccc1)c1ccccc1)[C@H]1Cc2c([nH]c3ccccc23)CN1` [Example 6, (3R)-3-diphenylmethylcarbamoyl-1,2,3,4-tetrahydro-9H-pyrido[3,4-b]indole] showed an IC50 of 62 µM.

Work on `NC(=O)[C@H](CC(=O)O)NC(=O)[C@H]1Cc2c([nH]c3ccccc23)CN1C(=O)c1ccccc1` [Example 8, N-[(3R)-2-benzoyl-1,2,3,4-tetrahydro-9H-pyrido[3,4-b]indole-3-carboxyl]-L-aspartic acid amide] yielded an IC50 of 82 µM.

`CC(C)C[C@H](NC(=O)[C@H]1Cc2c([nH]c3ccccc23)CN1C(=O)c1ccccc1)C(=O)N[C@@H](CC(=O)O)C(N)=O` [Example 9, N-[(3R)-2-benzoyl-1,2,3,4-tetrahydro-9H-pyrido[3,4-b]indole-3-carboxyl]-L-leucyl-L-aspartic acid amide] gave an IC50 of 230 µM.

Molecule `CC(C)C[C@H](NC(=O)[C@H]1Cc2c([nH]c3ccccc23)CN1C(=O)c1ccc2ccccc2c1)C(=O)N[C@@H](CC(=O)O)C(N)=O` [Example 10, N-[(3R)-2-(2-naphthoyl)-1,2,3,4-tetrahydro-9H-pyrido[3,4-b]indole-3-carboxyl]-L-leucyl-L-aspartic acid amide] has an IC50 of 25 µM.

In the case of `Cc1cccc(NC(=O)N2Cc3[nH]c4ccccc4c3C[C@@H]2C(=O)N[C@@H](CC(C)C)C(=O)N[C@@H](CC(=O)O)C(N)=O)c1` [Example 11, N-[(3R)-2-(3-methylphenylcarbamoyl)-1,2,3,4-tetrahydro-9H-pyrido[3,4-b]indole-3-carboxyl]-L-leucyl-L-aspartic acid amide], the IC50 is reported as 34 µM.

Molecule `Cc1cccc(NC(=O)N2Cc3[nH]c4ccccc4c3C[C@H]2C(=O)N[C@@H](CC(C)C)C(=O)N[C@@H](CC(=O)O)C(N)=O)c1` [Example 12, N-[(3S)-2-(3-methylphenylcarbamoyl)-1,2,3,4-tetrahydro-9H-pyrido[3,4-b]indole-3-carboxyl]-L-leucyl-L-aspartic acid amide] has an IC50 of 170 µM.

Molecule `CCCCCN(CCCCC)C(=O)[C@H]1Cc2c([nH]c3ccccc23)CN1C(=O)Nc1cccc(C)c1` [Example 13, (3R)-3-(N,N-dipentylcarbamoyl)-2-(3-methylphenylcarbamoyl)-1,2,3,4-tetrahydro-9H-pyrido[3,4-b]indole] has an IC50 of 10 µM.

For `CC(C)C[C@H](NC(=O)[C@H]1Cc2c([nH]c3ccccc23)CN1C(=O)Nc1ccccc1)C(=O)N[C@@H](CC(=O)O)C(N)=O` [Example 14, N-[(3R)-2-phenylcarbamoyl-1,2,3,4-tetrahydro-9H-pyrido[3,4-b]indole-3-carboxyl]-L-leucyl-L-aspartic acid amide], the IC50 was over 100 µM.

Molecule `CCOC(=O)c1ccc(NC(=O)[C@H]2Cc3c([nH]c4ccccc34)CN2C(=O)OCc2ccccc2)cc1` [Example 15, ethyl 4-N-[(3R)-2-carbobenzoxy-1,2,3,4-tetrahydro-9H-pyrido[3,4-b]indole-3-carboxyl]aminobenzoate] has an IC50 of 9 µM.

`CCOC(=O)c1cccc(NC(=O)[C@H]2Cc3c([nH]c4ccccc34)CN2C(=O)OCc2ccccc2)c1` [Example 16, ethyl 3-N-[(3R)-2-carbobenzoxy-1,2,3,4-tetrahydro-9H-pyrido[3,4-b]indole-3-carboxyl]aminobenzoate] showed an IC50 of 10 to 25 µM.

`CCOC(=O)c1ccccc1NC(=O)[C@H]1Cc2c([nH]c3ccccc23)CN1C(=O)OCc1ccccc1` [Example 17] showed an IC50 of over 10 µM.

Molecule `O=C(Nc1ccccc1C(=O)N1CCCC1)[C@H]1Cc2c([nH]c3ccccc23)CN1C(=O)OCc1ccccc1` [Example 18, pyrrolidine-2-N-[(3R)-2-carbobenzoxy-1,2,3,4-tetrahydro-9H-pyrido-[3,4-b]indole-3-carboxyl]aminobenzamide] has an IC50 of 25 µM.

With `O=C(Nc1ccccc1C(=O)N1CCCC1)[C@@H]1Cc2c([nH]c3ccccc23)CN1C(=O)OCc1ccccc1` [Example 19, pyrrolidine-2-N-[(3S)-2-carbobenzoxy-1,2,3,4-tetrahydro-9H-pyrido[3,4-b]indole-3-carboxyl]aminobenzamide] the IC50 was 20 µM.

Molecule `O=C(Nc1ccccc1C(=O)N1CCCC1)[C@H]1Cc2c([nH]c3ccccc23)CN1C(=O)c1ccc2ccccc2c1` [Example 20, pyrrolidine-2-N-[(3R)-2-(2-naphthoyl)-1,2,3,4-tetrahydro-9H-pyrido[3,4-b]indole-3-carboxyl]aminobenzamide] has an IC50 of over 30 µM.

Work on `CCCCN(CCCC)C(=O)c1ccccc1NC(=O)[C@H]1Cc2c([nH]c3ccccc23)CN1C(=O)OCc1ccccc1` [Example 22] yielded an IC50 of over 10 µM.

`CCOC(=O)c1ccccc1NC(=O)[C@@H]1Cc2c([nH]c3ccccc23)CN1C(=O)OCc1ccccc1` [Example 23, ethyl 2-N-[(3S)-2-carbobenzoxy-1,2,3,4-tetrahydro-9H-pyrido[3,4-b]indole-3-carboxyl]aminobenzoate] showed an IC50 of over 10 µM.

Work on `CC[C@H](C)[C@H](NC(=O)[C@H]1Cc2c([nH]c3ccccc23)CN1C(=O)Nc1ccc(Cl)c(Cl)c1)C(=O)N[C@@H](CC(=O)O)C(N)=O` [Example 24, N-[(3R)-2-(3,4-dichlorophenylcarbamoyl)-1,2,3,4-tetrahydro-9H-pyrido[3,4-b]indol-3-yl]carbonyl-L-isoleucyl-L-aspartic acid amide] yielded an IC50 of 36 µM.

Work on `NC(=O)[C@H](CC(=O)O)NC(=O)C1(NC(=O)[C@H]2Cc3c([nH]c4ccccc34)CN2C(=O)Nc2ccc(Cl)c(Cl)c2)CCCC1` [Example 26] yielded an IC50 of 100 µM.

With `CC(C)C[C@H](NC(=O)[C@H]1Cc2c([nH]c3ccccc23)CN1C(=O)Nc1ccc(Cl)c(Cl)c1)C(=O)NCCC(=O)O` [Example 27] the IC50 was 14 µM.
